Measurements as given in patent US20240197761A1, “FUCOSYLATION AND IMMUNE MODULATION IN CANCER” (H. LEE MOFFITT CANCER CENTER AND RESEARCH INSTITUTE, INC., priority 2021, published 2024).

How the values were obtained:
HLA-DRB1 in WM793 cells = assay: Immunofluorescent subcellular localization of HLA-DRB1; type: cell-based, human; details: vs. vehicle (DMSO)
Source text: FIGS. 18A-18F show N-linked fucosylation of HLA-DRB1 at N48 regulates its cell surface localization and is required for tumor suppression and increased TIL abundance. (a) (upper) Amino acid sequence alignments showing conservation of predicted N- and O-linked fucosylation sites in human HLA-DRB1 (N48 and T129) and mouse H2EB1 (N46 and T147). Structural modeling of the HLA-DRB1:HLA-DM (lower left) and CD4:HLA-DRB1:TCR (lower right) complexes. Potential glycosylation sites, N48 and T129, of HLA-DR1 beta chain are shown as sticks. CD4 (cyan), HLA-DRB1 (yellow), antigen peptide (magenta), and TCR (green)(lower right). (b) HLA-DRB1 peptide fragment identified by nano-LC/MS to be fucosylated on N48, with predicted HexNAc(4)Hex(3)Fuc(1) glycan structure shown above. (c) Lectin pull down (LPD) and IB analyses of EV and V5-tagged wild-type HLA-DRB1 (WT)-, HLA-DRB1 N48G (N48G)-, and HLA-DRB1 T129A (T129A)-expressing WM793 cells. (d) DMSO- or fucosyltransferase inhibitor (FUTi)-treated WM793 cells immunofluorescently stained for endogenous HLA-DRB1, KDEL (ER marker), and DAPI (20× magnification). […]

SW1 tumors = assay: Anti-PD-1 mouse model, SW1; type: in vivo, C3H/HeN mice
Source text: FIGS. 21A and 21B Administration of combination L-fucose and anti-PD-1 suppresses tumors and increases intra-tumoral CD4+T central and effector memory cells (a) Volumetric growth curves for SW1 tumors in C3H/HeN mice (left) and SM1 tumors in C57BL/6 mice (right) fed L-fucose (LF) and treated with PBS (control) or anti-PD-1. (concurrent initiation of LF anti-PD1 (▾)). The tumor growth curves are means±SEM from ≥7 mice per group. (b) Volumetric growth curves for SM1 tumors in C57BL/6 mice fed ±L-fucose (LF) and treated with PBS (control) or anti-PD-1 (PD-1). (concurrent initiation of LF±PD1 (▾)). The tumor growth curves are means±SEM from ≥7 mice per group. *=p<0.05. At Day 7 (prior to administration of LF or PD1), Day 21 (endpoint for tumors of control-treated mice), Day 31 (endpoint for tumors of LF-treated mice), Day 63 (endpoint for tumors of PD1-treated mice), the primary tumors (Tumor) and draining lymph nodes (LN) of 4-5 mice per treatment group were analyzed by flow cytometry for intratumor levels of CD4+ and CD8+T subpopulations (naive/terminal, stem central/central/effector memory) and dendritic cell (DC) subpopulations (cDC1, cDC2, and monocyte-derived DC (moDC)) as in FIG. 15. Proportions of CD4+, CD8+, and DC subpopulations in each organ at each timepoints are represented by the color-coded pie charts (each pie chart represents 4-5 mice). […]

TUBO (mouse BC) = assay: TUBO breast cancer growth and TILs in immunocompetent mice, L-fuc dose escalation; type: in vivo, Balb/C mice; details: for TUBO tumor growth: immunocompetent Balb/C mice, L-fuc dose escalation (FIG. 3B)
[1] = test system: mouse bone marrow-derived myeloid progenitors; assay: Myeloid phenotype profiling (M-MDSC, PMN-MDSC, moDC) of bone marrow-derived myeloid progenitors; type: cell-based; details: ± GM/G-CSF, average values from 12 mice
Protocol: Next, we investigated the effect of L-fuc on NO production of bone marrow derived MDSCs (FIGS. 8A and 8B). We observed that L-fuc abrogated NO production in all cases. […] We also wanted to look at how L-fuc treatment effected the expression of immunosuppression genes (FIG. 9). We assessed the expression of key MDSC biology-related genes at 24 or 72 hours after in initial L-fuc treatment of the cells. Generally, we observed reductions in ARGI, PARP, and CHOP expression. In contrast we observed upregulation of STAT1. To further assess how L-fuc/fucosylation affects myeloid phenotype, we modulated fucosylation using DMSO (control), 2-fluoro-fucose (2FIF, fucosylation inhibitor), or L-fuc in mouse bone marrow-derived myeloid progenitors treated ±GM/G-CSF (FIG. 10). We profiled changes In M-MDSC vs. PMN-IMDSC, as well as moDC, as we observed immunostimulatory activity. […] Shown are the average values irom 12 mice. We also observed that L-fucose alters TLR profiles of dendritic cells (FIG. 11).

Row | Structure (SMILES) | subcellular localization of HLA-DRB1 (HLA-DRB1 in WM793 cells) | efficacy of anti-PD1 in combination with oral L-fuc (SW1 tumors) | fold-change in TIL subsets: MDSCs (TUBO (mouse BC); 500 vs. 0 mM L-fuc, TUBO tumors (FIG. 3D)) | number of TILs/g tumor (TUBO (mouse BC); FIG. 3C) | fold increase in TIL subsets: CD4 T cells (TUBO (mouse BC); following L-fucose administration (FIG. 3D)) | TUBO tumor growth (TUBO (mouse BC)) | TUBO tumor growth (TUBO (mouse BC); listed as L-fuc) | myeloid phenotype (M-MDSC vs. PMN-MDSC, moDC) [1]
1 | CC(=O)OC1O[C@@H](C)[C@@H](OC(C)=O)[C@@H](OC(C)=O)[C@@H]1F (some centres unmarked) [FUTi, 2F-peracteyl-fucose, reference compound] | dimmer, more central, endoplasmic reticulum-co-localization of HLA-DRB1 | – | – | – | – | – | – | –
2 | C[C@H](O)[C@@H](O)[C@@H](O)[C@H](O)C=O [L-fucose] | – | did not enhance | 3.1 fold | increased | 3.1 fold | dose dependent decrease | suppresses | enrichment of a monocytic phenotype, including increased moDCs
